Tests used:
[1] = PXRD study of crystal form stability on storage; format: physicochemical; conditions: sealed vial under nitrogen atmosphere, room temperature and ambient humidity
Method: Selexipag Form APO-I can be characterized by a PXRD diffractogram comprising, among other peaks, characteristic peaks, expressed in degrees 2θ (±0.2°), at 7.5°, 12.4° and 21.7°. Preferably, the PXRD diffractogram further comprises at least three peaks, expressed in degrees 2θ (±0.2°), selected from the group consisting of 9.4°, 11.6°, 14.1°, 15.1°, 16.7°, 17.2°, 18.3°, 19.9°, 22.3° and 23.6°. More preferably, the PXRD diffractogram further comprises peaks, expressed in degrees 2θ (±0.2°), at 9.4°, 11.6°, 14.1°, 15.1°, 16.7°, 17.2°, 18.3°, 19.9°, 22.3° and 23.6°. PXRD studies of samples of Selexipag Form APO-I maintained under a nitrogen atmosphere in a sealed vial have shown that this crystal form is stable following storage at room temperature and ambient humidity for at least 14 days. PXRD diffractograms were recorded on a Bruker D8 Discover powder X-ray diffractometer (Bruker-AXS, Karlsruhe, Germany). The generator was a Micro-focus X-ray source (IMSTube: Cu tube with 1.54184 Å) with a voltage of 50 kV and current of 1.00 mA, using a divergence slit of 0.3 mm and collimator of 0.3 mm. For each sample, one frame was collected using a still scan with a Pilatus 3R-100 kA detector at the distance of 154.72 mm from the sample. Raw data were evaluated using the program EVA (Bruker-AXS, Karlsruhe, Germany).

[2] = drug substance in UPTRAVI, per AusPAR, cited from earlier work

In the case of `CC(C)N(CCCCOCC(=O)NS(C)(=O)=O)c1cnc(-c2ccccc2)c(-c2ccccc2)n1` [Selexipag Form APO-I, 2-{4-[N-(5,6-diphenylpyrazin-2-yl)-N-isopropylamino]butyloxy}-N-(methylsulfonyl)acetamide], the “crystal form stable following storage (PXRD)” value [1] is reported as “at least 14 days”.

For `CC(C)N(CCCCOCC(=O)NS(C)(=O)=O)c1cnc(-c2ccccc2)c(-c2ccccc2)n1` [Form I, 2-{4-[N-(5,6-diphenylpyrazin-2-yl)-N-isopropylamino]butyloxy}-N-(methylsulfonyl)acetamide], the “Biopharmaceutics Classification System (BCS) class” value ([2]; Class II = high permeability but low solubility) is given as “Class II” and the solubility behaviour [2] is given as “pH dependent solubility”.

Reference: US10407396B2, “Crystalline form of selexipag” (Apotex Inc., priority 2017, dated 2019)
